Measured values reported in patent publication US9326993B2, “Treatment of pulmonary and pleural fibrosis using HSP27 inhibitors” (ONCOGENEX TECHNOLOGIES INC., priority 2011, dated 2016).
Residues, ends and D or L forms follow the SMILES beside them. *: point of attachment. e = 2'-O-(2-methoxyethyl) (MOE); Cbz = O=C(OCc1ccccc1)*; d = 2'-deoxy (DNA)

Columns and labels:
[1] = system: human mesothelial Met-5A cells; test: rTGF-β1-induced EMT in Met-5A cells (western blot, RT-PCR); assay type: cell-based; conditions: HSP27 siRNA-depleted cells plus proteasome inhibitor
Procedure: Mesothelial rat established cell line 4/4 RM4 cells (American Type Culture Collection—ATCC—Rockville, Md.) were seeded in Ham's F10 (Lonza), with FBS 15%. Mesothelial human established cell line MET-5A (ATCC) were seeded in Medium 199 (lonza), 1% L-glutamine, 1% penicillin-streptomycin with 10% FBS. Epithelial human cell line A549 cells (ATCC) and were seeded in Ham's F10 (lonza) with 10% FBS.
For EMT induction and analysis, all the different cells were exposed to their respective medium containing 10 ng/ml recombinant (r)TGF-β1 (R&D system, Lille, France) for 6, 12, 24, or 48 hours.
HSP27 siRNA were purchased from applied bios system (Courtaboeuf, France). The sense and antisense sequence were respectively: 5′-GUUCAAAGCAACCACCUGUtt-3 (SEQ ID No: 4)′ and 5′-ACAGGUGGUUGCUUUGAACtt-3′. (SEQ ID No: 5). They were used at a concentration of 50 nM. SiRNA were transfected using INTERFERin (polyplus, Illkirch, France) following the manufacturer recommendations. 5-6 hours after transfection medium were changed and cells were treated or not with 10 ng/ml TGF-β1 for 12, 24 or 48 hours. Seq ID No. 3 was used as a random control oligonucleotide.
(§1) Protein extraction was made using triton X 100 during 30 min at 4° C., vortexing every 10 min. Protein dosage is made with the modified lowry kit (Biorad, Marne-la-Coquette, France). Equal amounts of protein (30-50 μg) were electrophoresed through 8 to 12% SDS polyacrylamide gels. The separate protein bands were transferred onto a PVDF membrane. The non-specific sites were saturated with a solution of PBS-tween 0.1%, nonfat milk 8%. Membranes were incubated with primary Abs over night at 4° C. Secondary Abs IgG linked to HRP (HorseRadish Peroxidase, Jackson ImmunoResearch Laboratories, PA, USA) were used at a concentration of 1/5000. Enhanced ChemiLuminescent substrat (ECL, santa cruz biotechnology, CA, USA) was used to detect the protein of interest. […]
Total RNA was extracted using TRIzol (Invitrogen, Cergy Pontoise, France) from MET-5A and A549 cells treated or not with rTGF-β1 12 or 24 hours and transfected or not by HSP27 siRNA or plasmid encoding HSP27. […] Quantitative RT-PCR was performed on the cDNA using the SYBR green master mix (promega, Charbonnieres, France). […]

[2] = system: HSP27; conditions: cited from earlier work
[3] = system: human mesothelial Met-5A cells; test: Induction of HSP27 overexpression in Met-5A cells; assay type: cell-based
Source text: To study the involvement of HSP27 in the EMT process, we induced the overexpression of HSP27 in the human mesothelial Met-5A cells by three different methods: heat shock, staurosporine treatment, and transfection with a plasmid encoding HSP27. […] (Brunet Simioni et al., Oncogene 2009; 28:3332-44) A more specific overexpression was obtained by HSP27 cDNA transfection. […] Conversely, siRNA-meditated depletion of HSP27 inhibits rTGF-β1 induced α-SMA in human […] Met-5A cells and epithelial A549 cells. This decrease in α-SMA content induced by HSP27 depletion seems to be, at least in part, the result of its proteasomal degradation because in the presence of an inhibitor of the proteasome, such as MG132, α-SMA levels were restored

[4] = system: AdTGF-β1 induced pleural and subpleural fibrosis model in rats; test: AdTGF-β1 induced pleural and subpleural fibrosis model; assay type: in vivo, rat; conditions: for reduction in the lungs volume compared to AdDL administered animals: RCL2 volume, 10 min at 20 cm H20
Source text: For experiments on pleural fibrosis we used AdTGF-β1223/225, an adenovirus construct with a mutant TGF-β1 translated into spontaneously bioactive TGF-β1 (AdTGFβ1) and control vectors (AdDL) with no insert in the deleted E1 region. The construction of adenoviral vectors is described in detail elsewhere (DeCologne, 2007, supra; Bett et al. Proc Natl Acad Sci USA 1994; 91:8802-6; Sime et al., J Clin Invest 1997; 100:768-76)
Female Sprague-Dawley rats (Charles River Laboratories) weighing 200-225 g were housed in special pathogen-free conditions. Rodent laboratory food and water were provided ad libitum. The animals were treated in accordance to the guidelines of the Ministère de la Recherche et de laTechnologie (Paris, France). All experiments were approved by the Comitéd'Ethique de l'Universite´ de Bourgogne (Bourgogne, France). All animal procedures were performed with inhalation anesthesia with isoflurane (TEM, Lormont, France). Adenovector administrations were performed by intrapleural injection in 800 μl of NaCl0.9% containing a total of 1.3×10^9 PFU AdTGF-β1, AdDL or AdLacZ. The intrapleural injection protocol was described in details elsewhere (DeCologne, 2007, supra)).
12 mg/kg of control ASO and OGX-427 were daily administrated by intrapleural injection during 5 days after adenoviral administration. Rats were euthanized by abdominal aortic bleeding and lungs were harvested and processed following what was previously described in Decologne et al (DeCologne, 2007, supra)).
Immunohistochemitry: Inflated lungs were transversally cut and paraffin embedded. 5 μm section were performed and stain with primary antibodies (Ab), Mouse monoclonal anti-α-SMA (Sigma, St Quentin Fallavier, France, 1/200), rabbit polyclonal anti-HSP27 (EnzoLife Science, Villeurbanne, France, 1/200) and rabbit polyclonal cleaved caspase 3 (cell signaling, Saint Quentin, France, 1/100). Secondary Abs used were respectively, a goat anti-mouse IgG biotin conjugated and a goat anti-rabbit IgG biotin conjugated. After peroxidase inhibition (PBS plus H2O2, 20 min), lung section were incubated over night at 4° C. with primary ab. Tissue section were after PBS 1× (Phosphate Buffer Saline) wash incubated with the secondary ab (1/500) 45 min. The streptavidin-HRP complex (Jackson ImmunoResearch Laboratories, PA, USA, 1/500) was used 45 min at room temperature. 3-Amino-9-ethylcarbazole/hydrogen peroxide was used as chromagen substrate. Slides were counterstained with hematoxylin.
Total human TGF-β1 was determined from pleural lavage fluid (PLF) using ELISA (R&D Systems, Lille, France), performed according to the recommendations of the manufacturer. The sensitivity of this assay was 7 pg·mL-1.
To assess the role of HSP27 inhibition in the process of fibrogenesis in vivo, we administered OGX427 or its control ASO in the pleural cavity in our AdTGF-β1 induced pleural and subpleural fibrosis model in rats. The concentrations of ASO control and OGX-427 used were those previously described in studies of bladder cancer where the oligonucleotides were administered intra-vesically. (Matsui et al. Mol Cancer Ther 2009; 8:2402-11)
After AdTGF-β1 or AdDL intrapleural administration, rats were daily treated with the ASO control or OGX427 during […] by intra pleural injection. We first confirmed by an ELISA technique that the content on TGF-β1 after AdTGF-β1 intrapleural administration was similar in the pleural lavage fluid (PLF) from all rats, those treated with OGX427 and those treated with a control ASO (FIG. 4A). […] (FIG. 4B)
To determine lung activity, lung volumes were assessed by measuring the volume of RCL2 (fixation solution) that drained into the lungs after 10 min at a constant pressure of 20 cm H20. Compared to AdDL administered animals, AdTGF-β1 administration in ASO control rats induced a reduction in the lungs volume of 55%. […] This effect for the HSP27 inhibitor was only observed in the TGF-β1-exposed animals. […]

[5] = system: Mesothelial rat primary cells; test: Spontaneous EMT of primary mesothelial cells over culture passages; assay type: cell-based
Procedure: For primary cell harvesting, 8 ml of HBSS (Lonza, Paris, France) were injected in the pleural cavity through the diaphragm then removed and followed by a 10 ml trypsin 5%, EDTA 0.4% administration for 30 min. This lavage was removed and placed in 30 ml of DMEM (Dulbecco's Modified Eagle Medium, Lonza) with 15% FBS (Fetal Bovine Serum, Lonza). After centrifugation (1300 rpm, 5 minutes), the cell pellet was re-suspended into 5 ml DMEM, FBS 15% and placed at 37° C., 5% CO2.
Mesothelial rat primary cells were grown in Dulbecco's Modified Eagle's Medium (DMEM) 1% L-glutamine, 1% penicillin-streptomycin with 15% Fetal Bovine Serum (FBS. Lonza, Paris, France). Cells were assessed before culture and from passage 1 to 4.
as §1

Compound: CC(C)C[C@@H](C=O)NC(=O)[C@H](CC(C)C)NC(=O)[C@H](CC(C)C)NC(=O)OCc1ccccc1 [MG132] (Cbz-Leu-Leu-Leu-aldehyde)
- α-SMA levels after HSP27 depletion [1]: restored

Compound: CC(=O)O[C@H]1C(=O)[C@@]2(C)[C@H]([C@H](OC(=O)c3ccccc3)[C@]3(O)C[C@H](OC(=O)[C@H](O)[C@@H](NC(=O)c4ccccc4)c4ccccc4)C(C)=C1C3(C)C)[C@]1(OC(C)=O)CO[C@@H]1C[C@@H]2O [Paclitaxel]
- HSP27 expression/levels [2]: inhibitor of hsp27 expression

Compound: CN[C@@H]1C[C@H]2O[C@@](C)([C@@H]1OC)n1c3ccccc3c3c4c(c5c6ccccc6n2c5c31)C(=O)NC4 [staurosporine]
- HSP27 induction [3]: efficient inducers of HSP27
- α-SMA expression/content ([3]; after HSP27 overexpression): increase

Compound: ASO control: control oligonucleotide having the sequence CCTTCCCTGAAGGTTCCTCC, also known as ISIS 141923 (listed as DNA, chemistry not given here)
- reduction in the lungs volume compared to AdDL administered animals ([4]; AdTGF-β1 rats): 55%

Compound: OGX-427: 4-12-4 2′-MOE gapmer antisense oligonucleotide with phosphorothiolated linkages targeting HSP27, made by OncoGenex (Seq. ID No. 2) (antisense GGGACGCGGCGCTCGGTCAT; sugars from the 5' end e4 d12 e4, all C 5-methyl, all phosphorothioate, T or U not given here; listed as Homo sapiens)
- increased expression of HSP27 with cell passages ([5]; vs ASO control): blocked
- increased expression of α-SMA with cell passages ([5]; vs ASO control): blocked
- cell shape (mesothelial phenotype) ([5]; vs control ASO): kept their mesothelial phenotypic shape
- lung volumes in AdDL-administered animals, ASO control vs OGX 427 ([4]; AdDL rats (no TGF-β1)): no difference
- mesothelial cell migration within the subpleural parenchyma ([4]; AdTGF-β1 + AdLacZ rats): no mesothelial cell migration
- morphology of the mesothelial cells ([4]; AdTGF-β1 + AdLacZ rats): did not change
- pleural fibrosis (histological evaluation) ([4]; AdTGF-β1 rats): minor pleural fibrosis
- HSP27 expression in lungs ([4]; AdTGF-β1 rats, histology): very significant decrease
- α-SMA expression in lungs ([4]; AdTGF-β1 rats, histology): very significant decrease
- pleural collagen quantified from microscopic images ([4]; AdTGF-β1 rats, vs control antisense): substantial reduction
- reduction in the lungs volume compared to AdDL administered animals ([4]; AdTGF-β1 rats): 35%
- HSP27 expression in PLF (western blot) ([4]; AdTGF-β1 rats, intra-pleural administration): strongly blocked
- TGF-β1 content in pleural lavage fluid (ELISA) ([4]; after AdTGF-β1 intrapleural, 12 mg/kg daily intrapleural, vs control ASO): similar
- amount of fibrosis in the pulmonary parenchyma ([4]; collagen in parenchymal subpleural areas): reduces the amount of fibrosis

Compound: interferon-γ: cytokine shown to downregulate expression of HSP27
- HSP27 expression/levels [2]: downregulate expression of HSP27
